Organism: Rattus norvegicus
Assay: Open TG-GATES - Regimen: Daily Repeat
Assay type: toxicity, organism-based, Sprague-Dawley
Design: regimen Daily Repeat, gender Male, age 6 weeks
Conditions: in vivo, po, 150 mg/kg, route gavage, dose level Middle; for APTT / Bas / Eos / Fbg / Hb / Ht / Lym / MCH / MCHC / MCV / Mono / Neu / PT / Plat / RBC / Ret / WBC: tissue Blood; for KIDNEY_L / KIDNEY_R / KIDNEY_TOTAL: tissue Kidney; for LIVER: tissue Liver; for A/G / ALP / ALT / AST / BUN / CRE / Ca / Cl / DBIL / GLC / IP / K / LDH / Na / PL / RALB / TBIL / TC / TG / TP / gamma-GTP: tissue Plasma

SMILES: CN1C(=O)CCS(=O)(=O)C1c1ccc(Cl)cc1 (configuration not stated) [CHLORMEZANONE]
- TERMINAL_BW (72 h, time 3 day): 226.1 g
- APTT (72 h, time 3 day): 15.7 s
- Bas (72 h, time 3 day): 0%
- Eos (72 h, time 3 day): 1%
- Fbg (72 h, time 3 day): 296.4 mg/dL
- Hb (72 h, time 3 day): 13.5 g/dL
- Ht (72 h, time 3 day): 39.4%
- Lym (72 h, time 3 day): 76%
- MCH (72 h, time 3 day): 21.8 pg
- MCHC (72 h, time 3 day): 34.1%
- MCV (72 h, time 3 day): 63.8 fL
- Mono (72 h, time 3 day): 2.8%
- Neu (72 h, time 3 day): 19.4%
- PT (72 h, time 3 day): 11.4 s
- Plat (72 h, time 3 day): 123.4 x10_4/uL
- RBC (72 h, time 3 day): 618 x10_4/ul
- Ret (72 h, time 3 day): 6.2%
- WBC (72 h, time 3 day): 86.7 x10_2/uL
- KIDNEY_L (72 h, time 3 day): 0.9 g
- KIDNEY_R (72 h, time 3 day): 0.9 g
- KIDNEY_TOTAL (72 h, time 3 day): 1.8 g
- LIVER (72 h, time 3 day): 13 g
- A/G (72 h, time 3 day): 0.9
- ALP (72 h, time 3 day): 1825 IU/L
- ALT (72 h, time 3 day): 52.2 IU/L
- AST (72 h, time 3 day): 69 IU/L
- BUN (72 h, time 3 day): 15.4 mg/dL
- CRE (72 h, time 3 day): 0.2 mg/dL
- Ca (72 h, time 3 day): 11.2 mg/dL
- Cl (72 h, time 3 day): 106.6 meq/L
- DBIL (72 h, time 3 day): 0.014 mg/dL
- GLC (72 h, time 3 day): 179.6 mg/dL
- IP (72 h, time 3 day): 7.1 mg/dL
- K (72 h, time 3 day): 4.5 meq/L
- LDH (72 h, time 3 day): 74.6 IU/L
- Na (72 h, time 3 day): 143 meq/L
- PL (72 h, time 3 day): 144 mg/dL
- RALB (72 h, time 3 day): 2.8 g/dL
- TBIL (72 h, time 3 day): 0.026 mg/dL
- TC (72 h, time 3 day): 80.4 mg/dL
- TG (72 h, time 3 day): 94.6 mg/dL
- TP (72 h, time 3 day): 5.9 g/dL
- gamma-GTP (72 h, time 3 day): 1.4 IU/L
- TERMINAL_BW ([…], time 7 day): 265.5 g
- TERMINAL_BW ([…], time 14 day): 313.6 g
- TERMINAL_BW ([…], time 28 day): 389.8 g
- APTT ([…], time 7 day): 17 s
- Bas ([…], time 7 day): 0%
- Eos ([…], time 7 day): 0.8%
- Fbg ([…], time 7 day): 302.2 mg/dL
- Hb ([…], time 7 day): 13.2 g/dL
- Ht ([…], time 7 day): 39.4%
- Lym ([…], time 7 day): 78.2%
- MCH ([…], time 7 day): 21.3 pg
- MCHC ([…], time 7 day): 33.5%
- MCV ([…], time 7 day): 63.4 fL
- Mono ([…], time 7 day): 3%
- Neu ([…], time 7 day): 18%
- PT ([…], time 7 day): 11.5 s
- Plat ([…], time 7 day): 129.2 x10_4/uL
- RBC ([…], time 7 day): 621 x10_4/ul
- Ret ([…], time 7 day): 6.4%
- WBC ([…], time 7 day): 79.7 x10_2/uL
- APTT ([…], time 14 day): 19.7 s
- Bas ([…], time 14 day): 0%
- Eos ([…], time 14 day): 0.8%
- Fbg ([…], time 14 day): 306.2 mg/dL
- Hb ([…], time 14 day): 14 g/dL
- Ht ([…], time 14 day): 40.1%
- Lym ([…], time 14 day): 80%
- MCH ([…], time 14 day): 21 pg
- MCHC ([…], time 14 day): 34.8%
- MCV ([…], time 14 day): 60.3 fL
- Mono ([…], time 14 day): 2%
- Neu ([…], time 14 day): 16.2%
- PT ([…], time 14 day): 11.6 s
- Plat ([…], time 14 day): 118.9 x10_4/uL
- RBC ([…], time 14 day): 665.2 x10_4/ul
- Ret ([…], time 14 day): 4.2%
- WBC ([…], time 14 day): 102.9 x10_2/uL
- APTT ([…], time 28 day): 17.9 s
- Bas ([…], time 28 day): 0%
- Eos ([…], time 28 day): 1%
- Fbg ([…], time 28 day): 281 mg/dL
- Hb ([…], time 28 day): 14.5 g/dL
- Ht ([…], time 28 day): 41.2%
- Lym ([…], time 28 day): 78.8%
- MCH ([…], time 28 day): 19.7 pg
- MCHC ([…], time 28 day): 35.3%
- MCV ([…], time 28 day): 55.7 fL
- Mono ([…], time 28 day): 2.2%
- Neu ([…], time 28 day): 16.8%
- PT ([…], time 28 day): 11.9 s
- Plat ([…], time 28 day): 105.4 x10_4/uL
- RBC ([…], time 28 day): 741.2 x10_4/ul
- Ret ([…], time 28 day): 2.8%
- WBC ([…], time 28 day): 97.2 x10_2/uL
- KIDNEY_L ([…], time 7 day): 1 g
- KIDNEY_R ([…], time 7 day): 1 g
- KIDNEY_TOTAL ([…], time 7 day): 2 g
- KIDNEY_L ([…], time 14 day): 1.2 g
- KIDNEY_R ([…], time 14 day): 1.2 g
- KIDNEY_TOTAL ([…], time 14 day): 2.4 g
- KIDNEY_L ([…], time 28 day): 1.3 g
- KIDNEY_R ([…], time 28 day): 1.3 g
- KIDNEY_TOTAL ([…], time 28 day): 2.5 g
- LIVER ([…], time 7 day): 14.4 g
- LIVER ([…], time 14 day): 15.9 g
- LIVER ([…], time 28 day): 18.1 g
- A/G ([…], time 7 day): 0.9
- ALP ([…], time 7 day): 1471.4 IU/L
- ALT ([…], time 7 day): 46.2 IU/L
- AST ([…], time 7 day): 63.6 IU/L
- BUN ([…], time 7 day): 16.6 mg/dL
- CRE ([…], time 7 day): 0.2 mg/dL
- Ca ([…], time 7 day): 11.5 mg/dL
- Cl ([…], time 7 day): 107.8 meq/L
- DBIL ([…], time 7 day): 0.014 mg/dL
- GLC ([…], time 7 day): 193.2 mg/dL
- IP ([…], time 7 day): 6.9 mg/dL
- K ([…], time 7 day): 4.2 meq/L
- LDH ([…], time 7 day): 71.2 IU/L
- Na ([…], time 7 day): 143.8 meq/L
- PL ([…], time 7 day): 142.2 mg/dL
- RALB ([…], time 7 day): 2.8 g/dL
- TBIL ([…], time 7 day): 0.02 mg/dL
- TC ([…], time 7 day): 80.6 mg/dL
- TG ([…], time 7 day): 87 mg/dL
- TP ([…], time 7 day): 6 g/dL
- gamma-GTP ([…], time 7 day): 1.2 IU/L
- A/G ([…], time 14 day): 0.8
- ALP ([…], time 14 day): 1404.2 IU/L
- ALT ([…], time 14 day): 52.2 IU/L
- AST ([…], time 14 day): 63.4 IU/L
- BUN ([…], time 14 day): 17.2 mg/dL
- CRE ([…], time 14 day): 0.2 mg/dL
- Ca ([…], time 14 day): 11.3 mg/dL
- Cl ([…], time 14 day): 106.8 meq/L
- DBIL ([…], time 14 day): 0.006 mg/dL
- GLC ([…], time 14 day): 188.2 mg/dL
- IP ([…], time 14 day): 7 mg/dL
- K ([…], time 14 day): 4.3 meq/L
- LDH ([…], time 14 day): 76.6 IU/L
- Na ([…], time 14 day): 142.8 meq/L
- PL ([…], time 14 day): 136.8 mg/dL
- RALB ([…], time 14 day): 2.9 g/dL
- TBIL ([…], time 14 day): 0.052 mg/dL
- TC ([…], time 14 day): 74.4 mg/dL
- TG ([…], time 14 day): 74.4 mg/dL
- TP ([…], time 14 day): 6.3 g/dL
- gamma-GTP ([…], time 14 day): 1 IU/L
- A/G ([…], time 28 day): 0.9
- ALP ([…], time 28 day): 1029.8 IU/L
- ALT ([…], time 28 day): 46 IU/L
- AST ([…], time 28 day): 58 IU/L
- BUN ([…], time 28 day): 16.8 mg/dL
- CRE ([…], time 28 day): 0.3 mg/dL
- Ca ([…], time 28 day): 10.7 mg/dL
- Cl ([…], time 28 day): 105.8 meq/L
- DBIL ([…], time 28 day): 0.01 mg/dL
- GLC ([…], time 28 day): 190.4 mg/dL
- IP ([…], time 28 day): 5.8 mg/dL
- K ([…], time 28 day): 4.1 meq/L
- LDH ([…], time 28 day): 63.4 IU/L
- Na ([…], time 28 day): 142.8 meq/L
- PL ([…], time 28 day): 153.8 mg/dL
- RALB ([…], time 28 day): 2.9 g/dL
- TBIL ([…], time 28 day): 0.058 mg/dL
- TC ([…], time 28 day): 83.4 mg/dL
- TG ([…], time 28 day): 93.6 mg/dL
- TP ([…], time 28 day): 6.4 g/dL
- gamma-GTP ([…], time 28 day): 1 IU/L

Source: ChEMBL document CHEMBL3885861, “Open TG-GATES”
